Tests used:
XCL-1 hiPSC CRBN Mock = experiment: LPM differentiation assay (FOXF1 high content imaging), XCL-1 CRBN Mock clone; assay type: cell-based; details: Homo sapiens, 48 h, % FOXF1+ cells after 2 d in APEL2+GSKi, read-out: IC50 (±SEM) in LPM differentiation assay
Description: On the day after seeding, the medium was replaced with 100 µL/well of mTeSR-1 (control) or APEL2 + GSKi containing either DMSO or diluted compounds (for a final DMSO concentration of 0.2%). The same conditions were replenished the following day for a total of 2 d of differentiation, and the following day (3 d after seeding), the medium was aspirated, and hiPSCs were fixed in 10% NBF for 15 min at room temperature.
(§1) Immunofluorescence staining was carried out by fixing/permeabilizing cells overnight in blocking buffer containing 3% BSA (Sigma) in DPBS-T, which contains DPBS + Ca^2+//Mg^2+ with 0.3% Triton-X100 (Sigma). Fixed and permeabilized cells were incubated in primary antibodies diluted (as noted in Table 1) in antibody buffer, consisting of 1% BSA in DPBS-T, overnight at 4 °C.
(§2) Cells were washed in blocking buffer for >6 hours at 4 °C and subsequently incubated in secondary antibody diluted in antibody buffer overnight at 4 °C. Secondary antibodies were washed out in antibody buffer for >4 h at 4 °C, and hiPSCs were counterstained with DAPI (Fisher) at 10 µg/mL in DPBS-T for 2 h. hiPSCs were washed in DPBS-T for >2 h at 4 °C, and immediately before imaging, the DPBS-T was replaced with DPBS. […] Chemical dose-response experiments and experiments examining the time-course of marker expression during LPM differentiation were imaged at 10X magnification using the Cellomics ArrayScan or CellInsight Cx7 LZR High Content Screening Platform and HCS Studio Cell Analysis Software (Thermo Fisher). An artificial threshold was uniformly applied to all images to generate the percentage of DAPI+ nuclei that stained positively for FOXF1 or NANOG. Thresholding for FOXF1 and T was performed relative to undiffer-entiated hiPSCs, and thresholding for SALL4 and OCT4 was performed relative to a non-expressing cell type (human primary endothelial cells). Settings for image acquisition and processing were uniformly applied between XCL-1 clones. […] Experiments were repeated in quadruplicate unless otherwise stated, and data are presented as mean ± SEM. Nonlinear regression analysis was performed using the 4-parameter [inhibitor]-vs-response curve fitting algorithm in Prism (GraphPad).

XCL-1 hiPSC CRBN KO/KI = experiment: LPM differentiation assay (FOXF1 high content imaging), XCL-1 CRBN KO/KI clone; assay type: cell-based, human; details: for IC50: Homo sapiens, 48 h, XCL-1 CRBN KO/KI, % FOXF1+ cells after 2 d in APEL2+GSKi, read-out: IC50 (±SEM) in LPM differentiation assay
Description: On the day after seeding, the medium was replaced with 100 µL/well of mTeSR-1 (control) or APEL2 + GSKi containing either DMSO or diluted compounds (for a final DMSO concentration of 0.2%). The same conditions were replenished the following day for a total of 2 d of differentiation, and the following day (3 d after seeding), the medium was aspirated, and hiPSCs were fixed in 10% NBF for 15 min at room temperature. For time-course experiments, cells were fixed at the specified intervals after the start of LPM differentiation.
as §1
Cells were washed in blocking buffer for >6 hours at 4 °C and subsequently incubated in secondary antibody diluted in antibody buffer overnight at 4 °C. Secondary antibodies were washed out in antibody buffer for >4 h at 4 °C, and hiPSCs were counterstained with DAPI (Fisher) at 10 µg/mL in DPBS-T for 2 h. hiPSCs were washed in DPBS-T for >2 h at 4 °C, and immediately before imaging, the DPBS-T was replaced with DPBS. Initial characterization of LPM differentiation by immunofluorescence was carried out using the A1R confocal microscope (Nikon) equipped with 10X objective, and automated object analysis was carried out using NIS Elements v5 software (Nikon). Chemical dose-response experiments and experiments examining the time-course of marker expression during LPM differentiation were imaged at 10X magnification using the Cellomics ArrayScan or CellInsight Cx7 LZR High Content Screening Platform and HCS Studio Cell Analysis Software (Thermo Fisher). An artificial threshold was uniformly applied to all images to generate the percentage of DAPI+ nuclei that stained positively for FOXF1 or NANOG. Thresholding for FOXF1 and T was performed relative to undiffer-entiated hiPSCs, and thresholding for SALL4 and OCT4 was performed relative to a non-expressing cell type (human primary endothelial cells). Settings for image acquisition and processing were uniformly applied between XCL-1 clones. The capacity of all XCL-1 clones and Gibco hiPSCs to undergo LPM differentiation in the high content format was assessed by FOXF1 and NANOG immunostaining. […] Experiments were repeated in quadruplicate unless otherwise stated, and data are presented as mean ± SEM. Nonlinear regression analysis was performed using the 4-parameter [inhibitor]-vs-response curve fitting algorithm in Prism (GraphPad).
Using CRISPR/Cas9-mediated gene editing, both CRBN alleles were knocked out in XCL-1 hiPSCs cells, followed by the insertion at the AAVS1 locus of a transgene encoding human CRBN with E377V and V388I mutations (clone hereafter referred to as CRBN KO/KI).

SALL4^G416A = target: T1, SALL4^G416A (Homo sapiens, UniProt Q9UJQ4, G416A); experiment: SALL4 MFI by high content imaging, XCL-1 SALL4^G416A hiPSCs; assay type: cell-based; details: SALL4^G416A hiPSC clone, 8 h of treatment
T1 construct: parental hiPSCs were engineered to express a homozygous G416A mutation in the endogenous SALL4 locus; endogenous in cells; host or cells: XCL-1 SALL4^G416A hiPSC clone (1E6), CRISPR/Cas9 knock-in at the endogenous locus
T1 sequence (Q96SW2 whole entry partner): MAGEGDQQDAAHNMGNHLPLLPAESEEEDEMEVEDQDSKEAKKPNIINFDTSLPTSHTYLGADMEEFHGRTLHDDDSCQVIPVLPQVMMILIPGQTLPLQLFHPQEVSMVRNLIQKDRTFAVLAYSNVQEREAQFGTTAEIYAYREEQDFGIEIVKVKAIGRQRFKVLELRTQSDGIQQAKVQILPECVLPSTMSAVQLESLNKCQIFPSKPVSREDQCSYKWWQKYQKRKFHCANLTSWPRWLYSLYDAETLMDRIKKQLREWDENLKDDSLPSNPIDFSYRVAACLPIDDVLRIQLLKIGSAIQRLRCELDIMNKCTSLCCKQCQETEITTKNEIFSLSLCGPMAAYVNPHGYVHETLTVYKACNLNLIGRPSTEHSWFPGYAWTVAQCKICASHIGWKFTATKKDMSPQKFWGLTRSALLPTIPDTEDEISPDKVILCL
T1 sequence (Q16531 whole entry partner): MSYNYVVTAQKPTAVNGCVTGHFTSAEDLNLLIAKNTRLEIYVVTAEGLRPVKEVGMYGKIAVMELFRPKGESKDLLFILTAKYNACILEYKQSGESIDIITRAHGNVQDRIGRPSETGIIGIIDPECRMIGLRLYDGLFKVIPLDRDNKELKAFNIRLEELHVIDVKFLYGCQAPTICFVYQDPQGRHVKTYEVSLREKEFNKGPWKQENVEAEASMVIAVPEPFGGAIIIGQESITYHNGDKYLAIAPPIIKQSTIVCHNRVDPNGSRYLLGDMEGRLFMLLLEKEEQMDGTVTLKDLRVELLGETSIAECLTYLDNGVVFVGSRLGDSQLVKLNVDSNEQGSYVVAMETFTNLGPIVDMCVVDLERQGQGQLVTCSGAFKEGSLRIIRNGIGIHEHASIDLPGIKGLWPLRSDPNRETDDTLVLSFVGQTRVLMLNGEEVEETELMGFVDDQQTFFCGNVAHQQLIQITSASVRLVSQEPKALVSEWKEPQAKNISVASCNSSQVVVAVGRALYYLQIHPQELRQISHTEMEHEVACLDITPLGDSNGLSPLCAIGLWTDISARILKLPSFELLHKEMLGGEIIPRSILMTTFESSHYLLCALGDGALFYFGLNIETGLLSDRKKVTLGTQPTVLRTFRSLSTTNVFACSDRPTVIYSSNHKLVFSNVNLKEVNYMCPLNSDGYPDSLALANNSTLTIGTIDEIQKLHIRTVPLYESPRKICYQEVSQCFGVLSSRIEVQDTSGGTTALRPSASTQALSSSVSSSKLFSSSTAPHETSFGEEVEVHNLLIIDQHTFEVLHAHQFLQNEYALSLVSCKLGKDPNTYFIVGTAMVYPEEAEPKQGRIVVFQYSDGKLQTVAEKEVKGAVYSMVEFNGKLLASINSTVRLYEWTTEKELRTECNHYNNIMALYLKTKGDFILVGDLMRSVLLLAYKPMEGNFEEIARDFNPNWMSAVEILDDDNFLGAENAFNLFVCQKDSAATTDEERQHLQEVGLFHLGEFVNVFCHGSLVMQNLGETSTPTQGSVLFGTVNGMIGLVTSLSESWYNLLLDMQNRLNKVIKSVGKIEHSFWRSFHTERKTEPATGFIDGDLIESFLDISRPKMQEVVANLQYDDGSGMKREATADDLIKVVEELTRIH
T1 sequence (Q9UJQ4 whole entry G416A): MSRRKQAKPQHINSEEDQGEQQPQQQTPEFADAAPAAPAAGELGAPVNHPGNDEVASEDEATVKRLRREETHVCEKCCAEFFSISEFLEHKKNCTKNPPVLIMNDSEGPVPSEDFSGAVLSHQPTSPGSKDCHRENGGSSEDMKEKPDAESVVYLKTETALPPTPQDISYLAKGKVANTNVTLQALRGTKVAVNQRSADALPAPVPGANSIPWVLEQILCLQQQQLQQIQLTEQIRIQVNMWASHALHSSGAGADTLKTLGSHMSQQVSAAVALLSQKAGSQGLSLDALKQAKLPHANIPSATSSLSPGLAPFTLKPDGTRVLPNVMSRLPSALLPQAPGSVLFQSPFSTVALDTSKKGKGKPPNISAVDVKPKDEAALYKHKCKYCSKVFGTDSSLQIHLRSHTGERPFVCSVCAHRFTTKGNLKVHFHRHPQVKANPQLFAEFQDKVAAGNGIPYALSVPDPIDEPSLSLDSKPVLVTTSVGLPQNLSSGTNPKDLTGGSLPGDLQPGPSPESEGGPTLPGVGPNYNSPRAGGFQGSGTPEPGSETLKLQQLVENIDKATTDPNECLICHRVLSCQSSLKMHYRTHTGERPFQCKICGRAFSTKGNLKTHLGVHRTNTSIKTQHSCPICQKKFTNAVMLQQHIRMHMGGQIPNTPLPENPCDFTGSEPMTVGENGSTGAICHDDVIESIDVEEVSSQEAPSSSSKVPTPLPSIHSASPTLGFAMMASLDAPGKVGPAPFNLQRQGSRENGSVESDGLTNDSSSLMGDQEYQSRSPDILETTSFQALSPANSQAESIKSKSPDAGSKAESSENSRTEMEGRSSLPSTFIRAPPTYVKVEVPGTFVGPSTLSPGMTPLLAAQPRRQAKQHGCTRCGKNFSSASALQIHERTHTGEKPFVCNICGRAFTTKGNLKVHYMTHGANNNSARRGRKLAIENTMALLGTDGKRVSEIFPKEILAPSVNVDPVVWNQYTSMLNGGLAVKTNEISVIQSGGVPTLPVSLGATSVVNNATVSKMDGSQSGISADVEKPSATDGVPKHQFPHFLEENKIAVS
From the text: High content imaging analysis of SALL4 immunofluorescence with DAPI counterstaining in hiPSCs. […] Data represent the mean +/− SEM from 2 independent experiments.

Gibco hiPSCs = experiment: 3D chondrogenic differentiation after LPM differentiation, DMMB assay for sGAG; assay type: cell-based, human; details: during 2 d LPM differentiation, then 18 d chondrogenic differentiation; for sGAG/DNA content compared to the DMSO control: thalidomide 20 µM, atRA 3 µM; for reduction of sGAG/DNA content upon chondrogenic differentiation in 3D: thalidomide at 20 µM, atRA at 3 µM
Description: For 3D differentiation studies, Gibco hiPSCs were encapsulated in fibrin at 2–4 × 10^6 cells/mL. hiPSCs were passaged with Versene (as described above) and were suspended as small clumps in a solution composed of a 1:4:5:10 dilution of 200 mM CaCl2 in DI water, 50 U/mL human thrombin (Sigma) in 0.1% cell culture BSA in DI water, DPBS, and hiPSC suspension in mTeSR1. The hiPSC suspension was mixed by pipetting, and 0.5 µL droplets of suspended hiPSCs were plated at the bottom of each well of a round-bottom sterile polypropylene plate. hiPSC suspensions were subsequently diluted 5-fold by pipetting up and down in each well with 2 µL of 10 mg/mL human fibrinogen (Sigma) in DPBS (sterile filtered prior to use). Fibrin clot formation proceeded for 10 minutes at room temperature prior to addition of mTeSR-1 and incubation under normal culture conditions overnight. […] For chondrogenic differentiation experiments, cells were cultured in APEL2 + GSKi for the described duration, followed by culture in ACF MesenCult chondrogenic differentiation medium (Stem Cell Technologies) for 17–20 days under normal culture conditions. Encapsulated hiPSCs were characterized by qRT-PCR as described above, except cells were lysed by bead-based homogenization (Bead Mill 4, Thermo Fisher) in buffer RLT that was supplemented with 1% β-mercaptoethanol. RNeasy procedure was carried out per manufacturer’s instructions, including the optional DNase step. Purified RNA samples were stored at −20 °C before analysis using Taqman primer/probes (Thermo Fisher) and fast advanced master mix (Thermo Fisher) on a QuantStudio 5 (Thermo). Samples were compared using normalization to the ACTB in each sample and the control for each experiment using the 2^−ΔΔCT method.
Alternatively, encapsulated hiPSCs were characterized for sulfated glycosaminoglycan (sGAG) content using the dimethylmethylene blue (DMMB) assay protocol[33],[34]. […] After addition of DMMB assay buffer, samples were immediately read at 525 nm, and sGAG composition was calculated in each sample by comparison to a chondroitin sulfate standard that was dissolved in digestion buffer. sGAG content (in µg/mL) was normalized to dsDNA content (in µg/mL) in each sample.
Figure 7 Characterization of hiPSC chondrogenic differentiation in 3D by DMMB assay for sulfated glycosaminoglycans. Chondrogenic differentiation of hiPSCs was assessed by culturing hiPSCs in fibrin gels followed by culture in APEL2/GSKi and subsequent culture in chondrogenic differentiation medium for a total of 21 days in culture after encapsulation. The influence of the duration of LPM differentiation or of chemical treatment during LPM differentiation (for 2 days) on chondrogenic differentiation was assessed by sulfated glycosaminoglycan assay on day 21. […]

hiPSCs = experiment: Viability of hiPSCs in 3D culture (CellTiter Glo 3D); assay type: cell-based, human; details: 20 µM thalidomide or 3 µM atRA, 2 d LPM differentiation in 3D fibrin
Description: Supplementary Figure 10. Normalized viability of hiPSCs differentiated to LPM for 2 days in 3D […]
µM atRA. Data represent replicate wells in a single experiment, n=6, of hiPSCs that were cultured in fibrin for 1 day in mTeSR1 followed by 2 days of culture in APEL2+GSKi in the presence of either 0.1% […]
differentiation, the medium was replaced with CellTiter Glo 3D reagent (diluted 1:1 in DPBS), and luminescence was measured on a plate reader.
Normalized luminescence is reported as mean +/- SD of 6 replicate wells per condition. No statistical differences was observed via one-way ANOVA and Dunnett’s post-hoc test (α=0.05).
(1 picture or pasted object on this page, not shown here)

[1] = tested on: human pluripotent stem cells (hPSCs); details: cited from earlier work
XCL-1 hiPSC SALL4 Mock = experiment: LPM differentiation assay (FOXF1 high content imaging), XCL-1 SALL4 Mock clone; details: Homo sapiens, 48 h, read-out: IC50 (±SEM) in LPM differentiation assay
Description: hiPSCs (Gibco or XCL-1 clones) were grown in mTeSR-1 on Matrigel, passaged into small clumps with Versene (4.5 min under normal culture conditions), counted as a single-cell suspension as described above, and seeded as small clumps at approximately 10,000 cells/well (30,000 cells/cm^2, ~15% confluence) in 100 µL mTeSR1 on Matrigel-coated µClear® 96-well plates (Greiner) for 1 d under normal culture conditions. On the day after seeding, the medium was replaced with 100 µL/well of mTeSR-1 (control) or APEL2 + GSKi containing either DMSO or diluted compounds (for a final DMSO concentration of 0.2%). The same conditions were replenished the following day for a total of 2 d of differentiation, and the following day (3 d after seeding), the medium was aspirated, and hiPSCs were fixed in 10% NBF for 15 min at room temperature.
as §1, §2

Row | SMILES | IC50 (XCL-1 hiPSC CRBN Mock) [µM] | inhibition of LPM differentiation at the highest concentration tested (XCL-1 hiPSC CRBN KO/KI; 50 µM, CRBN KO/KI clone) | IC50 (XCL-1 hiPSC CRBN KO/KI) [µM] | effect on SALL4 MFI (SALL4^G416A) | sGAG/DNA content compared to the DMSO control (Gibco hiPSCs) | reduction of sGAG/DNA content upon chondrogenic differentiation in 3D (Gibco hiPSCs) | normalized viability (CellTiter Glo 3D) versus DMSO (hiPSCs) | concentrations with cytotoxicity or functional effects on hPSCs and hPSC-derived mesoderm [1] | IC50 (XCL-1 hiPSC SALL4 Mock) [µM]
1 | O=C1CCC(N2C(=O)c3ccccc3C2=O)C(=O)N1 (stereo not shown) [Thalidomide, thalidomide] | 0.56 ± 0.45 | inhibited LPM differentiation albeit not to the same magnitude as control hiPSCs | > 50 | unchanged | decreased sGAG/DNA content | 30% | No statistical differences | above 100 µM | 0.69 ± 0.5
2 | CC1=C(/C=C/C(C)=C/C=C/C(C)=C/C(=O)O)C(C)(C)CCC1 [atRA, all-trans retinoic acid] | 2.7 ± 2 |  | 8.17 ± 5.1 | unchanged | decreased sGAG/DNA content | complete abolishment | No statistical differences |  | 2.94 ± 1.2

Reference: PMC7046148 (Scientific Reports, 2020)
